Assays:
[1] = system: Mouse cortical cell cultures; test: Fe2+-induced free radical neurotoxicity in cortical cell cultures (LDH release); assay type: cell-based; conditions: for Protection against free radical neurotoxicity compared with parent compound: comparison with BAS or NBAS
Experimental: (§1) Primary cortical cell cultures from embryonic mice were prepared and used to examine neuroprotective action of compounds. Mouse cortical cell culture system has been extensively used to study mechanisms and pharmacological intervention of neuronal death in neurological diseases. In brief, mouse cerebral cortices were removed from brains of the 15 day-old-fetal mice, in accordance with a protocol approved by our institutional animal care committee. The neocortices were gently triturated and plated on 24 well plates (5 hemispheres/plate) precoated with 100 μg/ml poly-D-lysine and 4 μg/ml laminin. Plating media consist of Eagles minimal essential media (MEM, Earles salts, supplied glutamine-free) supplemented with 5% horse serum, 5% fetal bovine serum, 2 mM glutamine, and 21 mM glucose. Cultures were maintained at 37° C. in a humidified 5% CO2 atmosphere. After 7 days in vitro (DIV 7), cultures were shifted into a growth medium identical to the plating medium but lacking fetal serum. At DIV 7-9, 10 mM cytosine arabinofuranoside was included to halt overgrowth of glia. Mixed cultures of neurons and glia were then fed twice a week.
(§2) The percent neuronal death was normalized to the mean LDH value released 24 hr after continuous exposure 500 μM NMDA (=100) or a sham control (=0).
(§3) The neuroprotective action of 5-amino salicylic acid (AS) was examined in primary cortical cell cultures. Mouse cortical cell cultures (DIV 12-14) were exposed to 300μ M NMDA for 10 min (1a), continuously to 50μ M Fe^2+ (1b), or 300μ M Zn^2+ for 30 min (1c), alone or with inclusion of 10-300μ M 5-amino salicylic acid (AS). Neuronal death was analyzed 24 hr later by measuring levels of LDH released into the bathing medium, mean±SEM (n=9-12 (1a), n=4-8 (1b) or n=4 (1c) culture wells per condition), scaled to mean LDH efflux value 24 hr after sham wash (=0) and continuous exposure to 500μ M NMDA (=100).
(§4) Neuronal death was analyzed 24 hr later by measuring levels of LDH released into the medium, meant SEM (n=7-8 (2a), n=3-6 (2b), n=4 (2c), or n=4 (2d) culture wells per condition). FIG. 2. indicates significant difference from relevant control, at p<0.05 using ANOVA and Student-Neuman-Keuls test.
(§5) 5-(pentafluorobenzyl)amino salicylic acid (PBAS) was synthesized and tested against neuronal injuries. Mouse cortical cell cultures (DIV 12-14) were exposed to 300μ M NMDA for 10 min (8a), continuously to 50μ M Fe^2+ (8b) or 10 mM BSO (8c), or 300μ M Zn^2+ for 30 min (8d), alone or with inclusion of indicated doses of 5-(pentafluorobenzyl)amino salicylic acid (PBAS). Neuronal death was analyzed 24 hr later by measuring levels of LDH released into the medium, mean t SEM (n=11-16 (8a), n=3-6 (8b), n=4-11 (8c), or n=12 (8d) culture wells per condition).
(§6) Mouse cortical cell cultures (DIV 12-14) were exposed to 300μ M NMDA for 10 min (11a) or continuously to 50μ M Fe^2− (11b), alone or with inclusion of indicated doses of 5-(4-nitrobenzyl)-N-acetylamino-2-acetoxy ethylbenzoate (NNAAE). Neuronal death was analyzed 24 hr later by measuring levels of LDH released into the medium, mean±SEM (n=10-12 (11a), n=7-8 (11b), or n=4 (11c) culture wells per condition).
(§7) Mouse cortical cell cultures (DIV 12-14) were exposed to 300μ M NMDA for 10 min (15a) or continuously to 50μ M Fe^2− (15b), alone or with inclusion of indicated doses of 5-[3-(4-nitrophenyl)-n-propyl]aminosalicylic acid (NPPAA). Neuronal death was analyzed 24 hr later by measuring levels of LDH released into the medium, mean±SEM (n=4 (15a) or n=3-8 (15b) culture wells per condition).

[2] = Anti-oxidant effect: decrease in DPPH absorption at 517 nm; assay type: biochemical; conditions: for A517 nm (DPPH): 100 uM DPPH in ethanol, 30 min, mean±SEM
Experimental: To examine anti-oxidant effect, DPPH (2,2-diphenyl-1-picryl-hydrazyl radical), a stable free radical, was dissolved in ethanol to make a 100μ M solution. A compound was reacted with DPPH or ethanol. After incubation for 30 min, relative decrease in DPPH absorption at 517 nm was measured by a spectrophotometer.
AS or trolox was reacted with 100 uM DPPH dissolved in ethanol for 30 min. Anti-oxidant property was analyzed by measuring changes in the level of DPPH at 517 nm, mean±SEM (n=3 test tubes per condition), after subtracting background value resulting from ethanol alone.
Anti-oxidant property was analyzed by measuring changes in DPPH at 517 nm, mean±SEM (n=3 test tubes per condition), after subtracting background value resulting from ethanol alone.
NBAS was reacted with 100 uM DPPH dissolved in ethanol for 30 min. Anti-oxidant property was analyzed by measuring changes in DPPH at 517 nm, mean±SEM (n=3 test tubes per condition), after subtracting background value resulting from ethanol alone.
PBAS was reacted with 100 uM DPPH dissolved in ethanol for 30 min. Anti-oxidant property was analyzed by measuring changes in DPPH at 517 nm, mean±SEM (n=3 test tubes per condition), after subtracting background value resulting from ethanol alone.
NBAS derivatives (100μ M for each) were reacted with 100 μM DPPH dissolved in ethanol for 30 min. Anti-oxidant property was analyzed by measuring changes in DPPH at 517 nm, meant SEM (n=3 test tubes per condition), after subtracting background value resulting from ethanol alone.

[3] = system: Mouse cortical cell cultures; test: NMDA-induced neuronal death in cortical cell cultures (LDH release); assay type: cell-based; conditions: 300 μM NMDA 10 min
Experimental: as §1, §2, §3, §4, §5, §6, §7

[4] = system: Mouse cortical cell cultures; test: BSO-induced free radical neurotoxicity in cortical cell cultures (LDH release); assay type: cell-based; conditions: 10 mM BSO continuously; compound 1 μM
Experimental: as §1, with “After 7 days in vitro (DIV 7), cultures were shifted into a growth medium identical to the plating medium but lacking fetal serum. At DIV 7-9, 10 mM cytosine arabinofuranoside was included to halt overgrowth of glia. Mixed cultures of neurons and glia were then fed twice a week.” left out
(§8) Neuronal death was analyzed 24 hr later by measuring levels of LDH released into the medium, meant SEM (n=7-8 (2a), n=3-6 (2b), n=4 (2c), or n=4 (2d) culture wells per condition). […]
5-(pentafluorobenzyl)amino salicylic acid (PBAS) was synthesized and tested against neuronal injuries. […] Neuronal death was analyzed 24 hr later by measuring levels of LDH released into the medium, mean t SEM (n=11-16 (8a), n=3-6 (8b), n=4-11 (8c), or n=12 (8d) culture wells per condition).

[5] = system: Mouse cortical cell cultures; test: Zn2+ neurotoxicity in cortical cell cultures (LDH release); assay type: cell-based; conditions: 300 μM Zn2+ 30 min
Experimental: as §1, with “Cultures were maintained at 37° C. in a humidified 5% CO2 atmosphere. After 7 days in vitro (DIV 7), cultures were shifted into a growth medium identical to the plating medium but lacking fetal serum. At DIV 7-9, 10 mM cytosine arabinofuranoside was included to halt overgrowth of glia. Mixed cultures of neurons and glia were then fed twice a week.” left out
The neuroprotective action of 5-amino salicylic acid (AS) was examined in primary cortical cell cultures. […] Neuronal death was analyzed 24 hr later by measuring levels of LDH released into the bathing medium, mean±SEM (n=9-12 (1a), n=4-8 (1b) or n=4 (1c) culture wells per condition), scaled to mean LDH efflux value 24 hr after sham wash (=0) and continuous exposure to 500μ M NMDA (=100).
as §8

[6] = 50 μM Fe2+ continuously, compound 10 μM
[7] = 50 μM Fe2+ continuously, compound 1 μM

CCOC(=O)c1cc(NCc2ccc([N+](=O)[O-])cc2)ccc1O [NAHE, 5-(4-nitrobenzyl)amino-2-hydroxy ethylbenzoate]
Effect on Fe2+-induced neuronal death, in words [1, 6]: blocked

O=C(O)c1cc(NCCc2ccc([N+](=O)[O-])cc2)ccc1O [NPAA, 5-[2-(4-nitrophenyl)-ethyl]aminosalicylic acid]
A517 nm (DPPH) ([2]; compound 100 μM): 0.09 ± 0.01 | Effect on NMDA-induced neuronal death, in words ([3]; compound 300 μM): slightly reduced | Effect on Fe2+-induced neuronal death, in words [1, 7]: complete blockade | Protection against free radical neurotoxicity compared with parent compound [1]: more effective than NBAS

CCOC(=O)c1cc(N(Cc2ccc([N+](=O)[O-])cc2)C(C)=O)ccc1OC(C)=O [NNAAE, 5-(4-nitrobenzyl)-N-acetylamino-2-acetoxy ethylbenzoate]
Effect on Fe2+-induced neuronal death, in words [1, 6]: blocked

O=C(O)c1cc(NCc2c(F)c(F)c(F)c(F)c2F)ccc1O [PBAS, 5-(pentafluorobenzyl)aminosalicylic acid]
Anti-oxidant property against DPPH, in words ([2]; DPPH, a stable free radical): reduced levels of DPPH | A517 nm (DPPH) ([2]; compound 1 μM): 1.07 ± 0.07 | A517 nm (DPPH) ([2]; compound 3 μM): 1.01 ± 0.07 | A517 nm (DPPH) ([2]; compound 10 μM): 0.71 ± 0.09 | A517 nm (DPPH) ([2]; compound 30 μM): 0.21 ± 0.04 | A517 nm (DPPH) ([2]; compound 100 μM): 0.15 ± 0.02 | A517 nm (DPPH) ([2]; compound 300 μM): 0.16 ± 0.01 | Reduction of NMDA-induced neuronal death ([3]; compound 300 μM, LDH 24 hr later): ~65% | Effect on NMDA-induced neuronal death, in words ([3]; compound 100-1000 μM): reduced NMDA-induced neuronal death in a dose-dependent manner | Effect on NMDA-induced neuronal death, in words ([3]; compound up to 1 mM): completely blocked | Effect on Fe2+-induced neuronal death, in words [1, 7]: significantly reduced | Effect on Fe2+-induced neuronal death, in words ([1]; 50 μM Fe2+ continuously, compound 3 μM): near completely blocked | Effect on BSO-induced neuronal death, in words [4]: blocked | Effect on Zn2+-induced neuronal death, in words ([5]; compound 100-300 μM): attenuated

Cc1c(C)c2c(c(C)c1O)CCC(C)(C(=O)O)O2 (stereo not drawn) [Trolox, reference compound]
A517 nm (DPPH) ([2]; compound 3 μM): 1.08 ± 0.1 | A517 nm (DPPH) ([2]; compound 10 μM): 0.89 ± 0.08 | A517 nm (DPPH) ([2]; compound 30 μM): 0.39 ± 0.06 | A517 nm (DPPH) ([2]; compound 100 μM): 0.05 ± 0.01 | A517 nm (DPPH) ([2]; compound 300 μM): 0.03 ± 0.01

O=C(O)c1cc(NCc2ccc([N+](=O)[O-])cc2)ccc1O [NBAS, 5-(4-nitrobenzyl)aminosalicylic acid]
A517 nm (DPPH) ([2]; compound 10 μM): 0.37 ± 0.1 | A517 nm (DPPH) ([2]; compound 30 μM): 0.04 ± 0.01 | A517 nm (DPPH) ([2]; compound 100 μM): 0.04 ± 0.00 | A517 nm (DPPH) ([2]; compound 300 μM): 0.04 ± 0.00

CCOC(=O)c1cc(N(Cc2ccc([N+](=O)[O-])cc2)C(C)=O)ccc1O [NNAHE, 5-(4-nitrobenzyl)-N-acetylamino-2-hydroxy ethylbenzoate]
Effect on Fe2+-induced neuronal death, in words [1, 6]: blocked

O=C(O)c1cc(NS(=O)(=O)c2ccc([N+](=O)[O-])cc2)ccc1O [NBSAA, 5-(4-nitrobenzenesulfonyl)aminosalicylic acid]
A517 nm (DPPH) ([2]; compound 100 μM): 0.15 ± 0.05 | Effect on NMDA-induced neuronal death, in words ([3]; compound 300 μM): markedly reduced | Effect on NMDA-induced neuronal death, in words ([3]; compound 30-300 μM): attenuated NMDA neurotoxicity in a dose-dependent manner | Protection against free radical neurotoxicity compared with parent compound [1]: weaker than NBAS

O=C(Nc1ccc(O)c(C(=O)O)c1)c1ccc([N+](=O)[O-])cc1 [NBAA, 5-(4-nitrobenzoyl)aminosalicylic acid]
A517 nm (DPPH) ([2]; compound 100 μM): 0.42 ± 0.22 | Effect on NMDA-induced neuronal death, in words ([3]; compound 30 μM): significantly attenuated | Effect on NMDA-induced neuronal death, in words ([3]; compound 30-300 μM): not further increased | Protection against free radical neurotoxicity compared with parent compound [1]: weaker than NBAS

O=C(O)c1cc(NCCCc2ccc([N+](=O)[O-])cc2)ccc1O [NPPAA, 5-[3-(4-nitrophenyl)-n-propyl]aminosalicylic acid]
A517 nm (DPPH) ([2]; compound 100 μM): 0.09 ± 0.02 | Effect on NMDA-induced neuronal death, in words ([3]; compound 300 μM): slightly reduced | Effect on Fe2+-induced neuronal death, in words [1, 7]: complete blockade | Protection against free radical neurotoxicity compared with parent compound [1]: more effective than NBAS

Nc1ccc(O)c(C(=O)O)c1 [AS, 5-amino salicylic acid, reference compound]
Effect on NMDA-induced neuronal death, in words ([3]; compound 10-300 μM, LDH 24 hr later): did not attenuate | Effect on Fe2+-induced neuronal death, in words ([1]; 50 μM Fe2+ continuously 24 hr, compound 10-100 μM): dose-dependently prevented | Effect on Zn2+-induced neuronal death, in words ([5]; compound 10-300 μM during and post Zn2+ treatment): not reduced

From patent US8211877B2, “Compounds, compositions and methods for preventing neurodegeneration in acute and chronic injuries in the central nervous system” (Neurotech Pharmaceuticals Co., Ltd., priority 2000, dated 2012)
